Assays:
Aurora-A (h) = molecular target: T1, Aurora-A (h) (Homo sapiens, UniProt O14965); test: Aurora-A kinase assay; format: biochemical
T1 construct: purchased Millipore UK Ltd (assays run there as a service)
T1 sequence (O14965 1-403): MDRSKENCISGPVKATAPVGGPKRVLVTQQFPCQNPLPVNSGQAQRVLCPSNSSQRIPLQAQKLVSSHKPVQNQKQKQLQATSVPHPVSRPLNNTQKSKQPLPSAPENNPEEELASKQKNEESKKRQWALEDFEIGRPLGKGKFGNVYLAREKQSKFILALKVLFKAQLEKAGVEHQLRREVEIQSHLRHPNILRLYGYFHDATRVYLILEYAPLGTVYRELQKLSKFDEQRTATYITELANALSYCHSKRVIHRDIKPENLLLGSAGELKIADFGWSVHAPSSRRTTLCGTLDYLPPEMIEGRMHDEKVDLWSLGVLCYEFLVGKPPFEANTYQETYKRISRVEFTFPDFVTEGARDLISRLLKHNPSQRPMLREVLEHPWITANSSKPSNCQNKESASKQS
Protocol: (§1) Kinase assays can be performed by measurement of incorporation of γ-^33P ATP into immobilized myelin basic protein (MBP). High binding white 384 well plates (Greiner) are coated with MBP (Sigma #M-1891) by incubation of 60 μL/well of 20 μg/mL MBP in Tris-buffered saline (TBS; 50 mM Tris pH 8.0, 138 mM NaCl, 2.7 mM KCl) for 24 h at 4° C. Plates are washed 3× with 100 μL TBS. Kinase reactions are carried out in a total volume of 34 μL in kinase buffer (5 mM Hepes pH 7.6, 15 mM NaCl, 0.01% bovine gamma globulin (Sigma #I-5506), 10 mM MgCl2, 1 mM DTT, 0.02% TritonX-100). Compound dilutions are performed in DMSO and added to assay wells to a final DMSO concentration of 1%. Each data point is measured in duplicate, and at least two duplicate assays are performed for each individual compound determination. Enzyme is added to final concentrations of 10 nM or 20 nM, for example. A mixture of unlabeled ATP and γ-^33P ATP is added to start the reaction (2×10^6 cpm of γ-^33P ATP per well (3000 Ci/mmole) and 10 μM unlabeled ATP, typically. The reactions are carried out for 1 h at room temperature with shaking Plates are washed 7× with TBS, followed by the addition of 50 μL/well scintillation fluid (Wallac). Plates are read using a Wallac Trilux counter. This is only one format of such assays; various other formats are possible, as known to one skilled in the art. […]

TYK2 (h) = molecular target: T2, TYK2 (h) (Homo sapiens, UniProt P29597); test: TYK2 kinase assay; format: biochemical
T2 construct: purchased Millipore UK Ltd (assays run there as a service)
T2 sequence (P29597 whole entry): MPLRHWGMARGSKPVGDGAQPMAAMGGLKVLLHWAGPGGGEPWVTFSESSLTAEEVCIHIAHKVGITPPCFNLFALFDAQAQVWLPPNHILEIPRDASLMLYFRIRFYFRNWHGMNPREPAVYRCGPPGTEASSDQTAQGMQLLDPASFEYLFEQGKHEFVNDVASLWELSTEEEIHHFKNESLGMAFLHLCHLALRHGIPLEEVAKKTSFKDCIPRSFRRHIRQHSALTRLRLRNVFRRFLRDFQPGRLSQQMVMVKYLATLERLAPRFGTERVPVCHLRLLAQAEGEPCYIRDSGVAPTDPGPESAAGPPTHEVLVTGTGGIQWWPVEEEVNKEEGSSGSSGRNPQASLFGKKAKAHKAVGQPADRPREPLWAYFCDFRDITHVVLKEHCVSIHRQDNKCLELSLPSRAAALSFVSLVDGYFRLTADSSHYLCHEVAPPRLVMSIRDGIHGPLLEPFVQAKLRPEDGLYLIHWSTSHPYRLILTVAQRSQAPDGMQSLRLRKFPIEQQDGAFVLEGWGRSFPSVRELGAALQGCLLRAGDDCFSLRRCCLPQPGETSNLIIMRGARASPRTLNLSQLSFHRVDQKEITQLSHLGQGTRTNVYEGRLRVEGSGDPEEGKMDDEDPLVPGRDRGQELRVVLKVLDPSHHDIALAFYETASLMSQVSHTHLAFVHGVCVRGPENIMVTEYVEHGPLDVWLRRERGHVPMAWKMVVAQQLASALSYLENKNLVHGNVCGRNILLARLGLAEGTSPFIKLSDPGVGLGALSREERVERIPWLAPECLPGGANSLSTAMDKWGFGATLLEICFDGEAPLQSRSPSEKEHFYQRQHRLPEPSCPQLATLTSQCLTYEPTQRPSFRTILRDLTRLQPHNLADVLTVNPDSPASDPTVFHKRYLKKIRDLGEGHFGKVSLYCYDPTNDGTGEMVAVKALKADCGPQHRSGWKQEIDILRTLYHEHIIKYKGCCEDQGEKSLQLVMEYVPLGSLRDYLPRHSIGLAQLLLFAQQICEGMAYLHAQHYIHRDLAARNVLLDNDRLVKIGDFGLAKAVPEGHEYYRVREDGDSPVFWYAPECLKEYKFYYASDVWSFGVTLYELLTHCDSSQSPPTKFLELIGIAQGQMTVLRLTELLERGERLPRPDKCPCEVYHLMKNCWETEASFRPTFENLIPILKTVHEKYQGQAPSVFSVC
Protocol: as §1

`Cc1c2ccc(Nc3ncc(Cl)c(NC4CC5CN(C(=O)CC#N)CC5C4)n3)cc2nn1C` (centres unmarked) [Ex. 4, 3-(5-((5-chloro-2-((2,3-dimethyl-2H-indazol-6-yl)amino)pyrimidin-4-yl)amino)hexahydrocyclopenta[c]pyrrol-2(1H)-yl)-3-oxopropanenitrile] gave an IC50 (Aurora-A (h)) of 104 nM and an IC50 (TYK2 (h)) of 20 nM.

From patent US9399637B2, “Substituted heteroaryl compounds and methods of use” (Calitor Sciences, LLC, priority 2014, dated 2016)
